From ChEMBL document CHEMBL5729195, “Heterocyclic compounds useful as aurora a selective inhibitors” (2022)

Molecular target: T1, Aurora kinase A (Homo sapiens, UniProt O14965)
T1 sequence (O14965 whole entry): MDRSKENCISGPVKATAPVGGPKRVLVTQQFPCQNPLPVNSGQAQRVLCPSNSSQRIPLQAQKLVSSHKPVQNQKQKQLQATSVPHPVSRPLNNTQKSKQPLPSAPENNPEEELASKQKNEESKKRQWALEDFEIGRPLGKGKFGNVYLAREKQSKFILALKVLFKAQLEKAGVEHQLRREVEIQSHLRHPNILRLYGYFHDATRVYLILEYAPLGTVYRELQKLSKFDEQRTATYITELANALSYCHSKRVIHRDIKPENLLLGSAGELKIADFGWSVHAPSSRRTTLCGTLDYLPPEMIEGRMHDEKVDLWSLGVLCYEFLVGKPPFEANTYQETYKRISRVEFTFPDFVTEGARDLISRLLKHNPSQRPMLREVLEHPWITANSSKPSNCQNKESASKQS
Experiment: The testing compound was diluted up to 100× final concentration in a 384-well plate. Transfer 250 nL of the compound dilution to a 384-well assay plate using Echo 550.

`Cc1cc(Nc2cc(F)cc(C[C@@]3(C(=O)O)CCN(Cc4cccc(Cl)c4F)[C@H](C)C3)n2)n[nH]1` was tested, and the IC50 was 1.1 nM.
